Test system: NIH3T3 cells
Test: Flow cytometry of intracellular Ca2+ in control untransfected NIH3T3 cells
Format: cell-based, mouse
Conditions: untransfected NIH3T3 cells loaded with indo-1

In the case of `NCCc1c[nH]c2ccc(O)cc12` [serotonin, 5-hydroxytryptamine], the “Intracellular Ca2+ response to serotonin” value is reported as “did not respond”.

Reference: patent US4985352A (The Trustees of Columbia University in the City of New York, priority 1989, dated 1991)
